Patent US7105536B2, “Compounds” (SmithKline Beecham plc, priority 1999, dated 2006)

Tested on: male rats (Sprague Dawley)
Assay: Maximal electroshock seizure (MEST) threshold test, rat model
Format: in vivo
Conditions: 2 mg/kg p.o. at 2 h, suspended in 1% methyl cellulose
Procedure: The maximal electroshock seizure (MEST) threshold test in rodents is particularly sensitive for detecting potential anticonvulsant properties^1. In this model, anticonvulsant agents elevate the threshold to electrically-induced seizures whilst proconvulsants lower the seizure threshold.
The threshold for maximal (tonic hindlimb extension) electroshock seizures in male rats (Sprague Dawley, 80–150 g, 6 weeks old) was determined by a Hugo Sachs Electronik stimulator which delivered a constant current (0.3 sec duration; from 1–300 mA in steps of 5–20 mA). The procedure is similar to that outlined above for mouse and full details are as published by Upton et al,.^4
The percentage increase or decrease in CC50 for each group compared to the control is calculated. Drugs are suspended in 1% methyl cellulose.

SMILES | percentage increase in CC50 compared to the control [%]
CCOc1ccc(C(=O)Nc2cc(Cl)c3c(c2)CNCC3)cc1Cl [Example 2, N-(5-Chloro-1,2,3,4-tetrahydroisoquinolin-7-yl)-3-chloro-4-ethoxy benzamide] | 390
CC(C)c1ccc(C(=O)Nc2cc(Cl)c3c(c2)CNCC3)cc1C#N [Example 3, N-(5-Chloro-1,2,3,4-tetrahydroisoquinolin-7-yl)-3-cyano-4-iso-propyl benzamide] | 140
COc1ccc(C(=O)Nc2cc(Cl)c3c(c2)CNCC3)cc1C#N [Example 5, N-(5-Chloro-1,2,3,4-tetrahydroisoquinolin-7-yl)-3-cyano-4-methoxybenzamide] | 210
CCOc1ccc(C(=O)Nc2cc(Cl)c3c(c2)CNCC3)cc1Br [Example 7, N-(5-Chloro-1,2,3,4-tetrahydroisoquinolin-7-yl)-3-bromo-4-ethoxybenzamide] | 410
CC(=O)c1cc(C(=O)Nc2cc(Cl)c3c(c2)CNCC3)ccc1OC(C)C [Example 8, N-(5-Chloro-1,2,3,4-tetrahydroisoquinolin-7-yl)-3-acetyl-4-iso-propoxybenzamide] | 114
